Assay [1] relates to AR. Kind of assay: In Vitro AR Agonism Assay. Format: cell-based. The following applies: LNAR reporter cell line; for Relative Maximum Response to Mifepristone: 10% CSS, 18-24 hrs, ratio of maximum response to that of Mifepristone (set to 1). As to the method: Example 5: In Vitro AR Agonism Assay
The AR agonism assay was done in the LNAR reporter cell line which has overexpressed AR and 4XARE-Luc genes. This cell line is sensitive to even minor partial AR agonism activity in hormone-deprived media (CSS). The assays were done in RPMI (without phenol red)+10% CSS using 6000 LNAR cells/well in 384-well plates and compounds were incubated with cells in […] incubator for 18-24 hrs. OneGlo reagent (25 uL/well) was added and plates were read with luminometer within 3 minutes.
To gauge the AR partial agonism activity, Mifepristone is included as a standard in the assay. AR agonism assay results are quantified by determining the ratio of the maximum response of individual compounds to the maximum response of Mifepristone (arbitrarily set to 1). Values of Table 4 are reported as Relative Maximum Response to Mifepristone. This general trend of AR agonism was shown for the class of compounds described herein.

Assay [2] has as its target GR (Homo sapiens (Human), UniProt P04150). Kind of assay: In Vitro GR Luciferase Reporter Assay. The note with it: CHO-K1-GR-MMTV-Luc reporter cells, antagonist assay, 10 nM Dexamethasone, 18-24 hours. Format: cell-based. The source says:
Example 4: In Vitro GR Luciferase Reporter Assay
Cell Line: CHO-K1-GR-MMTV-Luc reporter cells
Culture Media: DMEM (with phenol red)+10% FBS
Assay Media: DMEM (without phenol red)+10% CSS
Culture CHO-K1-GR-MMTV-Luc reporter cells in 15 cm plates in Culture Media at conditions less than 90% confluence.
Prepare 200×DMSO 1:5 serial dilutions of control and test compounds in 96-well non-sterile V bottom plate in DMSO, 8 serial dilutions for each compound.
Prepare 5× Assay Media diluted compound serial dilutions in 96-well non-sterile V bottom plate: Add 97.5 uL/well of Assay Media into 96-well then add 2.5 ul of 200× concentration of compounds and mix well.
Seed cells for Antagonist Assay: […] CHO-K1-GR-MMTV-Luc reporter cells were seeded in a Corning 3707 flat clear bottom 384-well white TC plate in 20 ul of Assay Media containing 12.5 nM Dexamethasone (final concentration=10 nM).
Add compounds: 5 ul of assay media diluted compounds were added to appropriate wells and followed a quick spin (1000 rpm, 10 sec) to bring media and cells to the bottom of plate. The plates were covered with SealMate film to avoid evaporation and placed in 37° C. incubator for approximately 18-24 hours.
Read plates: Equilibrate appropriate amount of Promega OneGlo luciferase reagent to room temperature. Remove the plates from incubator and add 25 uL of OneGlo reagent/well by multiple channel pipette and read the plates with Tecan F500 luminometer within 3 minutes.
The ability of the compounds disclosed herein to inhibit GR activity was quantified and the respective IC50 value was determined. Table 3 provides the cellular IC50 values of various substituted steroidal compounds disclosed herein.
Background: In a reporter assay the amount or activity of a reporter protein is the signal.

Bounds are passed on as bounds.

GR, sequence (P04150 whole entry): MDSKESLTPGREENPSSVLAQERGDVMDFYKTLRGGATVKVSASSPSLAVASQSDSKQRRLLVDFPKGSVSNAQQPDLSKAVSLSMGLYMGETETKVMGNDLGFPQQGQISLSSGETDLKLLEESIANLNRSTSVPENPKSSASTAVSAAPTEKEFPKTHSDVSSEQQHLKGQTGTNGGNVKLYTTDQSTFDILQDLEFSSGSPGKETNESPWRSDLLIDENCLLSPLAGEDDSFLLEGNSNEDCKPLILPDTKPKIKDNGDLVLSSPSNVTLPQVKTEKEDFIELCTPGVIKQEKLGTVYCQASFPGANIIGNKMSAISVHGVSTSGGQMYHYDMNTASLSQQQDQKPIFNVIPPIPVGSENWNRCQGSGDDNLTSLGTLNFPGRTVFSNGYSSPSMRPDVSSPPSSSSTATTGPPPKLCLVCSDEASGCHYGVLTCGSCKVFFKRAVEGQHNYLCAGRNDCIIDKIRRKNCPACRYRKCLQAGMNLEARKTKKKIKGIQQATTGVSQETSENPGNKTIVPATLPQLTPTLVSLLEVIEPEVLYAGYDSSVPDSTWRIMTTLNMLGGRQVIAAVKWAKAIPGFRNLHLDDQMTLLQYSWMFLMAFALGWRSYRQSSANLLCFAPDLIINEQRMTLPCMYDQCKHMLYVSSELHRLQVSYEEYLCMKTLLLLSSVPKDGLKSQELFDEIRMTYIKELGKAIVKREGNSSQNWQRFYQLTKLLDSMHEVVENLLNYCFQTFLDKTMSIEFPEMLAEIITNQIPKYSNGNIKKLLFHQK

Regarding `CN(C)c1ccc([C@H]2C[C@@]3(C)[C@@H](CC[C@@]3(O)C#CC3(C)COC3)[C@@H]3CCC4=CC(=O)CCC4=C32)cc1` [drawing 384], the “Relative Maximum Response to Mifepristone” value (“Relative Maximum Response” for short) in assay [1] is reported as “A (A: ≤0.4)”.

As for `C[C@@H]1C[C@H]2[C@@H]3CCC4=CC(=O)CCC4=C3[C@@H](c3ccc(N(C)C)cc3)C[C@]2(C)[C@]1(O)C#CC(C)(C)C` [drawing 379], the “Relative Maximum Response” value in assay [1] is reported as “A (A: ≤0.4)”.

As to `CN(C)c1cc(F)c([C@H]2C[C@@]3(C)[C@@H](CC[C@@]3(O)C#CC(C)(C)C)[C@@H]3CCC4=CC(=O)CCC4=C32)cc1F` [drawing 376], in assay [1], the “Relative Maximum Response” value was “A (A: ≤0.4)”.

Take `CC(C)C#C[C@]1(O)CC[C@H]2[C@@H]3CCC4=CC(=O)CCC4=C3[C@@H](c3c(F)cc(N4CCOCC4)cc3F)C[C@@]21C` [drawing 373]: in assay [1], the “Relative Maximum Response” value is reported as “A (A: ≤0.4)”.

Take `CC(C)(C)C#C[C@]1(O)CC[C@H]2[C@@H]3CCC4=CC(=O)CCC4=C3[C@@H](c3ccc(N4CCN(S(C)(=O)=O)CC4)cc3)C[C@@]21C` [drawing 382]: the “Relative Maximum Response” value in assay [1] is “B (B: >0.4)”.

With `Cc1cc([C@H]2C[C@@]3(C)[C@@H](CC[C@@]3(O)C#CC(C)(C)C)[C@@H]3CCC4=CC(=O)CCC4=C32)ccc1N(C)C` [drawing 371], the “Relative Maximum Response” value in assay [1] is “A (A: ≤0.4)”.

Consider `CC(C)C#C[C@]1(O)CC[C@H]2[C@@H]3CCC4=CC(=O)CCC4=C3[C@@H](c3cc(F)c(C(C)C)c(F)c3)C[C@@]21C` [drawing 374], for which the “Relative Maximum Response” value in assay [1] is reported as “A (A: ≤0.4)”.

As for `CC(C)(C)C#C[C@]1(O)CC[C@H]2[C@@H]3CCC4=CC(=O)CCC4=C3[C@@H](c3ccc(N4CCCC4)cc3)C[C@@]21C` [drawing 368], in assay [1], the “Relative Maximum Response” value is “A (A: ≤0.4)”.

`Cc1c(F)cc([C@H]2C[C@@]3(C)[C@@H](CC[C@@]3(O)C#Cc3ccc(S(C)(=O)=O)cc3)[C@@H]3CCC4=CC(=O)CCC4=C32)cc1F` [drawing 372]: the “Relative Maximum Response” value in assay [1] is “A (A: ≤0.4)”.

With `CC(C)(C)C#C[C@]1(O)CC[C@H]2[C@@H]3CCC4=CC(=O)CCC4=C3[C@@H](c3ccc(N4CCC[C@@H]4CO)cc3)C[C@@]21C` [drawing 385], the “Relative Maximum Response” value in assay [1] is on record as “A (A: ≤0.4)”.

With `CCC#C[C@]1(O)CC[C@H]2[C@@H]3CCC4=CC(=O)CCC4=C3[C@@H](c3ccc4c(c3)OCCO4)C[C@@]21C` [drawing 377], in assay [1], the “Relative Maximum Response” value is listed as “A (A: ≤0.4)”.

In the case of `CC(C)(C)C#C[C@]1(O)CC[C@H]2[C@@H]3CCC4=CC(=O)CCC4=C3[C@@H](c3cccc(C4CC4)c3)C[C@@]21C` [drawing 369], the “Relative Maximum Response” value in assay [1] is listed as “A (A: ≤0.4)”.

For `COC(C)(C)C#C[C@]1(O)CC[C@H]2[C@@H]3CCC4=CC(=O)CCC4=C3[C@@H](c3ccc(N4CCCC4)cc3)C[C@@]21C` [drawing 380], in assay [1], the “Relative Maximum Response” value was “A (A: ≤0.4)”.

As to `CC(C)(C)C#C[C@]1(O)CC[C@H]2[C@@H]3CCC4=CC(=O)CCC4=C3[C@@H](c3ccc(C(C)(C)C)cc3)C[C@@]21C` [drawing 367], the “Relative Maximum Response” value in assay [1] is given as “A (A: ≤0.4)”.

Take `CN(C)c1ccc([C@H]2C[C@@]3(C)[C@@H](CC[C@@]3(O)C#CC(C)(C)C)[C@@H]3CCC4=CC(=O)CCC4=C32)cc1F` [drawing 370]: the “Relative Maximum Response” value in assay [1] is listed as “A (A: ≤0.4)”.

In the case of `CN(C)c1ccc([C@H]2C[C@@]3(C)[C@@H](CC[C@@]3(O)C#CC3CC3)[C@@H]3CCC4=CC(=O)CCC4=C32)c(F)c1F` [drawing 375], the “Relative Maximum Response” value in assay [1] was “A (A: ≤0.4)”.

For `CC#C[C@]1(O)CC[C@H]2[C@@H]3CCC4=CC(=O)CCC4=C3[C@@H](c3ccc(N(C)C)cc3)C[C@@]21C` [Mifepristone, reference compound], the “partial AR agonism” value in assay [1] (in concentrations as low as 10 nM) is “strong partial AR agonism”.

As for `CN(C)c1ccc([C@H]2C[C@@]3(C)[C@@H](CC[C@@]3(O)C#Cc3ccccc3)[C@@H]3CCC4=CC(=O)CCC4=C32)cc1` [drawing 366], the “Relative Maximum Response” value in assay [1] is on record as “A (A: ≤0.4)”.

Turning to `COC1CN(c2ccc([C@H]3C[C@@]4(C)[C@@H](CC[C@@]4(O)C#CC(C)(C)C)[C@@H]4CCC5=CC(=O)CCC5=C43)cc2)C1` [drawing 381], the “Relative Maximum Response” value in assay [1] is listed as “A (A: ≤0.4)”.

Consider `CC(C)c1ccc([C@H]2C[C@@]3(C)[C@@H](C[C@@H](C)[C@@]3(O)C#CC(C)(C)C)[C@@H]3CCC4=CC(=O)CCC4=C32)cc1`, for which the IC50 in assay [2] is more than 0.1 µM.

`COCCN(C)c1ccc([C@H]2C[C@@]3(C)[C@@H](CC[C@@]3(O)C#CC(C)(C)OC)[C@@H]3CCC4=CC(=O)CCC4=C32)cc1` returned an IC50 in assay [2] not above 0.1 µM.

As to `C[C@H]1CCCN1c1ccc([C@H]2C[C@@]3(C)[C@@H](CC[C@@]3(O)C#CC(C)(C)C)[C@@H]3CCC4=CC(=O)CCC4=C32)cc1`, the IC50 in assay [2] was not above 0.1 µM.

The compound `CC(C)(C)C#C[C@]1(O)CC[C@H]2[C@@H]3CCC4=CC(=O)CCC4=C3[C@@H](c3ccc(C(C)(C)C)cc3)C[C@@]21C` [drawing 268] came in with an IC50 in assay [2] not above 0.1 µM.

In assay [2], `CN(C)c1ccc([C@H]2C[C@@]3(C)[C@@H](CC[C@@]3(O)C#CCO)[C@@H]3CCC4=CC(=O)CCC4=C32)cc1` registered an IC50 of more than 0.1 µM.

`Cc1c(F)cc([C@H]2C[C@@]3(C)[C@@H](CC[C@@]3(O)C#Cc3ccc(N(C)C)cc3)[C@@H]3CCC4=CC(=O)CCC4=C32)cc1F`: in assay [2], the IC50 was more than 0.1 µM.

`COc1ccc([C@H]2C[C@@]3(C)[C@@H](CC[C@@]3(O)C#CC(C)C)[C@@H]3CCC4=CC(=O)CCC4=C32)cc1F`: in assay [2], the IC50 was not above 0.1 µM.

For the compound `CN(C)c1ccc([C@H]2C[C@@]3(C)[C@@H](CC[C@@]3(O)C#CC3CC3)[C@@H]3CCC4=CC(=O)CCC4=C32)c(F)c1F` [drawing 303], the IC50 in assay [2] is not above 0.1 µM.

`CN(C)c1cc(F)c([C@H]2C[C@@]3(C)[C@@H](CC[C@@]3(O)C#Cc3ccccc3)[C@@H]3CCC4=CC(=O)CCC4=C32)c(F)c1` returned an IC50 in assay [2] not above 0.1 µM.

`CC(C)C#C[C@]1(O)CC[C@H]2[C@@H]3CCC4=CC(=O)CCC4=C3[C@@H](c3ccc(N(C)C)c(F)c3F)C[C@@]21C` returned an IC50 in assay [2] not above 0.1 µM.

`COC(C)(C)C#C[C@]1(O)CC[C@H]2[C@@H]3CCC4=CC(=O)CCC4=C3[C@@H](c3ccc(N4CCCC4)cc3)C[C@@]21C` [drawing 340] showed an IC50 in assay [2] not above 0.1 µM.

As for `CC(C)(C)C#C[C@]1(O)CC[C@H]2[C@@H]3CCC4=CC(=O)CCC4=C3[C@@H](c3ccc4c(c3)OCO4)C[C@@]21C` [drawing 378], the “Relative Maximum Response” value in assay [1] is given as “A (A: ≤0.4)”.

In assay [2], `Cc1c(F)cc([C@H]2C[C@@]3(C)[C@@H](CC[C@@]3(O)C#CC3CC3)[C@@H]3CCC4=CC(=O)CCC4=C32)cc1F` returned an IC50 not above 0.1 µM.

Turning to `C[C@]12C[C@H](c3ccc4c(c3)OCO4)C3=C4CCC(=O)C=C4CC[C@H]3[C@@H]1CC[C@@]2(O)C#CC(F)(F)F`, the IC50 in assay [2] is not above 0.1 µM.

In assay [2], `CN(C)c1c(F)cc([C@H]2C[C@@]3(C)[C@@H](CC[C@@]3(O)C#CC(F)(F)F)[C@@H]3CCC4=CC(=O)CCC4=C32)cc1F` displayed an IC50 of more than 0.1 µM.

As for `CN(C)c1ccc([C@H]2C[C@@]3(C)[C@@H](CC[C@@]3(O)C#Cc3ccc(S(C)(=O)=O)cc3)[C@@H]3CCC4=CC(=O)CCC4=C32)cc1` [drawing 383], the “Relative Maximum Response” value in assay [1] was “B (B: >0.4)”.

A word on the IC50: it is the concentration needed to halve the response being measured. Low values mean greater potency, high ones weaker potency.
